Assay results reported in the NIST ThermoML archive (doi:10.1021/je060137q).
± gives the expanded uncertainty stated by the source.

Columns and labels:
[1] = xn = mol fraction of the nth substance listed; conditions: for surface tension liquid-gas: Pendant drop shape; for mass density: 101 kPa, Liquid
[2] = 101 kPa, Liquid

Cc1cc(C)cc(C)c1 [1,3,5-trimethylbenzene] + CCOC(=O)OCC
[1]
Conditions	mass density [kg/m3]	surface tension liquid-gas [mN/m]
298.15 K, x2 = 0	861.04 ± 0.46	28.09 ± 0.31
298.15 K, x2 = 0.05	865.43 ± 0.45	–
298.15 K, x2 = 0.1	869.94 ± 0.43	27.71 ± 0.31
298.15 K, x2 = 0.15	874.61 ± 0.42	–
298.15 K, x2 = 0.1999	879.3 ± 0.41	27.37 ± 0.3
298.15 K, x2 = 0.2501	884.12 ± 0.4	–
298.15 K, x2 = 0.2999	889.01 ± 0.39	27.01 ± 0.3
298.15 K, x2 = 0.3498	893.96 ± 0.38	–
298.15 K, x2 = 0.3999	899.08 ± 0.37	26.76 ± 0.29
298.15 K, x2 = 0.4499	904.28 ± 0.35	–
298.15 K, x2 = 0.5006	909.64 ± 0.34	26.56 ± 0.29
298.15 K, x2 = 0.5497	914.93 ± 0.33	–
298.15 K, x2 = 0.6001	920.47 ± 0.32	–
298.15 K, x2 = 0.6498	926.07 ± 0.3	–
298.15 K, x2 = 0.7007	931.9 ± 0.29	–
298.15 K, x2 = 0.7495	937.62 ± 0.28	–
298.15 K, x2 = 0.8004	943.71 ± 0.26	–
298.15 K, x2 = 0.849	949.64 ± 0.25	–
298.15 K, x2 = 0.9001	956.06 ± 0.24	–
298.15 K, x2 = 0.9501	962.49 ± 0.23	–
313.15 K, x2 = 0	848.73 ± 0.47	26.82 ± 0.3
313.15 K, x2 = 0.0502	852.95 ± 0.46	–
313.15 K, x2 = 0.0997	–	26.36 ± 0.29
313.15 K, x2 = 0.1001	857.31 ± 0.45	–
313.15 K, x2 = 0.1497	861.7 ± 0.44	–
313.15 K, x2 = 0.1995	–	25.95 ± 0.29
313.15 K, x2 = 0.201	866.26 ± 0.42	–
313.15 K, x2 = 0.248	870.64 ± 0.41	–
313.15 K, x2 = 0.2987	875.33 ± 0.4	–
313.15 K, x2 = 0.2997	–	25.57 ± 0.28
313.15 K, x2 = 0.3417	879.45 ± 0.39	–
313.15 K, x2 = 0.4001	–	25.22 ± 0.28
313.15 K, x2 = 0.4009	885.2 ± 0.38	–
313.15 K, x2 = 0.4487	889.94 ± 0.37	–
313.15 K, x2 = 0.5001	–	24.93 ± 0.28
313.15 K, x2 = 0.5005	895.18 ± 0.36	–
313.15 K, x2 = 0.5501	900.3 ± 0.34	–
313.15 K, x2 = 0.5995	905.52 ± 0.33	–
313.15 K, x2 = 0.651	911.05 ± 0.32	–
313.15 K, x2 = 0.6995	916.4 ± 0.31	–
313.15 K, x2 = 0.7495	921.97 ± 0.29	–
313.15 K, x2 = 0.8004	927.84 ± 0.28	–
313.15 K, x2 = 0.8501	933.7 ± 0.27	–
313.15 K, x2 = 0.9001	939.69 ± 0.26	–
313.15 K, x2 = 0.9501	945.76 ± 0.24	–

Cc1cc(C)cc(C)c1 [1,3,5-trimethylbenzene] + COC(=O)OC
[1]
Conditions	mass density [kg/m3]	surface tension liquid-gas [mN/m]
298.15 K, x2 = 0	861.04 ± 0.46	28.09 ± 0.31
298.15 K, x2 = 0.054	867.08 ± 0.45	–
298.15 K, x2 = 0.1048	872.95 ± 0.44	27.91 ± 0.31
298.15 K, x2 = 0.1518	878.8 ± 0.43	–
298.15 K, x2 = 0.1998	885.1 ± 0.42	27.6 ± 0.3
298.15 K, x2 = 0.2491	891.85 ± 0.41	–
298.15 K, x2 = 0.3001	899.28 ± 0.4	27.43 ± 0.3
298.15 K, x2 = 0.3496	906.77 ± 0.39	–
298.15 K, x2 = 0.3999	–	27.32 ± 0.3
298.15 K, x2 = 0.4001	914.84 ± 0.38	–
298.15 K, x2 = 0.4499	923.32 ± 0.37	–
298.15 K, x2 = 0.4999	932.32 ± 0.36	27.34 ± 0.3
298.15 K, x2 = 0.5508	942.03 ± 0.35	–
298.15 K, x2 = 0.5977	951.57 ± 0.34	–
298.15 K, x2 = 0.6488	962.47 ± 0.33	–
298.15 K, x2 = 0.7	974.17 ± 0.32	–
298.15 K, x2 = 0.7514	986.83 ± 0.3	–
298.15 K, x2 = 0.7999	999.6 ± 0.29	–
298.15 K, x2 = 0.85	1013.67 ± 0.3	–
298.15 K, x2 = 0.8999	1028.84 ± 0.3	–
298.15 K, x2 = 0.9499	1045.18 ± 0.31	–
313.15 K, x2 = 0	848.73 ± 0.47	26.82 ± 0.3
313.15 K, x2 = 0.0505	854.19 ± 0.46	–
313.15 K, x2 = 0.1009	–	26.42 ± 0.3
313.15 K, x2 = 0.1046	860.31 ± 0.45	–
313.15 K, x2 = 0.15	865.69 ± 0.44	–
313.15 K, x2 = 0.1994	–	26.04 ± 0.29
313.15 K, x2 = 0.2007	872.13 ± 0.43	–
313.15 K, x2 = 0.2489	878.45 ± 0.42	–
313.15 K, x2 = 0.2985	885.42 ± 0.41	–
313.15 K, x2 = 0.2996	–	25.8 ± 0.29
313.15 K, x2 = 0.35	892.95 ± 0.4	–
313.15 K, x2 = 0.3983	900.54 ± 0.39	–
313.15 K, x2 = 0.4016	–	25.63 ± 0.29
313.15 K, x2 = 0.4498	908.93 ± 0.38	–
313.15 K, x2 = 0.5001	917.76 ± 0.37	–
313.15 K, x2 = 0.5004	–	25.55 ± 0.28
313.15 K, x2 = 0.5492	926.76 ± 0.36	–
313.15 K, x2 = 0.5999	936.76 ± 0.35	–
313.15 K, x2 = 0.6488	946.86 ± 0.34	–
313.15 K, x2 = 0.6992	958.18 ± 0.33	–
313.15 K, x2 = 0.7489	969.98 ± 0.31	–
313.15 K, x2 = 0.7995	982.91 ± 0.3	–
313.15 K, x2 = 0.8479	996.11 ± 0.29	–
313.15 K, x2 = 0.8997	1011.33 ± 0.29	–
313.15 K, x2 = 0.9501	1027.37 ± 0.29	–

CCOC(=O)OCC [diethyl carbonate]
[2]
Conditions	mass density [kg/m3]
298.15 K	969.12 ± 0.21
313.15 K	952.15 ± 0.23

CCOC(=O)OCC [diethyl carbonate] + Cc1cc(C)cc(C)c1
[1], x1 = 1
Conditions	mass density [kg/m3]
298.15 K	969.12 ± 0.21
313.15 K	952.15 ± 0.23

CCOC(=O)OCC [diethyl carbonate] + Cc1ccc(C)c(C)c1
[1], x1 = 1
Conditions	mass density [kg/m3]
298.15 K	969.12 ± 0.21
313.15 K	952.15 ± 0.23

COC(=O)OC [dimethyl carbonate]
[2]
Conditions	mass density [kg/m3]
298.15 K	1062.97 ± 0.32
313.15 K	1044.63 ± 0.3

COC(=O)OC [dimethyl carbonate] + Cc1cc(C)cc(C)c1
[1], x1 = 1
Conditions	mass density [kg/m3]
298.15 K	1062.97 ± 0.32
313.15 K	1044.63 ± 0.3

COC(=O)OC [dimethyl carbonate] + Cc1ccc(C)c(C)c1
[1], x1 = 1
Conditions	mass density [kg/m3]
298.15 K	1062.97 ± 0.32
313.15 K	1044.63 ± 0.3
